From paper PMC3254807 (2011)

Molecular target: Na+/K+ ATPase
Experiment: colorimetric ATPase assay
Assay type: biochemical, Sus scrofa

Structure (SMILES)	IC50 [nM]
C[C@@H]1O[C@@H](O[C@H]2CC[C@@]3(C)[C@H](CC[C@@H]4[C@@H]3CC[C@]3(C)[C@@H](C5=CC(=O)OC5)CC[C@]43O)C2)[C@H](O)[C@H](O)[C@H]1O [D6-MA]	1100
C[C@H]1O[C@@H](O[C@H]2[C@@H](O)C[C@H](O[C@H]3[C@@H](O)C[C@H](O[C@H]4CC[C@@]5(C)[C@H](CC[C@@H]6[C@@H]5CC[C@]5(C)[C@@H](C7=CC(=O)OC7)CC[C@]65O)C4)O[C@@H]3C)O[C@@H]2C)C[C@H](O)[C@@H]1O [Digitoxin]	2800
